Consider two compounds from patent US8501233B2, “Compositions and methods for treating cancer” (Wake Forest University, priority 2007, dated 2013).

For experiment [1], the system named is RKO cells. Kind of experiment: Cell death of RKO cells with Mitomycin C compositions, MTS assay (Example 7). Type of experiment: cell-based, human. As to conditions: MMC 40 μM, including cells heated to 42° C. How it is done: Three (3) 48 well plates containing 10,000-20,000 RKO cells/well (human colon carcinoma) were prepared for a series of experiments measuring cell death as a function of exposure to various compositions, including compositions according to some embodiments of the present invention.
RKO colorectal cancer cell lines were purchased from American Type Culture Collections (ATCC) and cultured in McCoys's media supplemented with 2.5 μg/ml of amphotericin, 1% L-glutamine, 1% penicillin/streptomycin, and 10% fetal bovine serum. Cells were seeded in wells of the appropriate trays at a density of 10,000-20,000 cells per well.
(§1) MWNTs were grown by chemical vapor deposition (CVD) using xylene as the carbon precursor and ferrocene as a catalyst at concentrations of 60 mg or 400 mg. Hydrogen and argon gases were used to flow the xylene through a preheater at 170° C. and a furnace oven at 700° C. An injection rate of 5 ml/hour for a one hour run yielded about 200 mg of carbon nanotubes.
(§2) 50 mg of the MWNTs were cut and cleaned by sonication in a mixture of 90 ml of concentrated sulfuric acid and 30 ml of concentrated nitric acid for 24 hours. The length of the nanotubes was about 2 μm as determined by transmission electron microscopy (TEM). MWNT suspensions were prepared by adding 1 mg of MWNT per 1 ml of aqueous solution comprising 0.1% by weight Pluronic 127® surfactant. […]

A further experiment relates to HCT 116 cells. Description: Cell death of HCT 116 cells, single 8 second lasing (Example 8). Particulars: oxaliplatin 300 μM, including cells heated to 42° C. Type of experiment: cell-based, human. How it is done: Two (2) 48 well plates containing 10,000-20,000 HCT 116 cells/well (human colon carcinoma) were prepared for a series of experiments measuring cell death as a function of exposure to various compositions, including compositions according to some embodiments of the present invention.
HCT 116 colorectal cancer cell lines were purchased from American Type Culture Collections (ATCC) and cultured in McCoys's media supplemented with 2.5 μg/ml of amphotericin, 1% L-glutamine, 1% penicillin/streptomycin, and 10% fetal bovine serum. Cells were seeded in wells of the appropriate trays at a density of 10,000-20,000 cells per well.
as §1, §2

The subject of experiment [2] is RKO cells. Kind of experiment: Cell death / viability of RKO cells, MTS assay (Example 5). It is filed as cell-based, human. Particulars: oxaliplatin 300 μM, including cells heated to 42° C., MTS 48 hours after treatment. How it is done: Three (3) 48 well plates containing 10,000-20,000 RKO cells/well (human colon carcinoma) and three (3) 48 well plates containing 10,000-20,000 HCT 116 cell/well (human colon carcinoma) were prepared for a series of experiments measuring cell death as a function of exposure to various compositions, including compositions according to some embodiments of the present invention.
RKO and HCT 116 colorectal cancer cell lines were purchased from American Type Culture Collections (ATCC) and cultured in McCoys's media supplemented with 2.5 μg/ml of amphotericin, 1% L-glutamine, 1% penicillin/streptomycin, and 10% fetal bovine serum. Cells were seeded in wells of the appropriate trays at a density of 10,000-20,000 cells per well. […]
50 mg of the MWNTs were cut and cleaned by sonication in a mixture of 90 ml of concentrated sulfuric acid and 30 ml of concentrated nitric acid for 24 hours. The length of the nanotubes was about 2 μm as determined by transmission electron microscopy (TEM). […]
Following incubation, the media in the wells of each of the plates was replaced with media containing MTS assay reagents from Promega's CellTiter 96® AQueous assay kit. Cell viability was quantified over a three hour period according to the manufacturers instructions.

In experiment [3] the test system is HeLa cervical cancer cells. Description: In vivo evaluation of localized hyperthermia, intraperitoneal cancer nodules in athymic mice (Example 11). As to conditions: Group 3 irradiated 10 seconds (42° C.), Group 2 heated 42° C. two hours, two weeks after treatment.
Protocol: 15 athymic mice are divided equally into three treatment groups as provided in Table 13, with Group 1 receiving a treatment composition of 100 μg/ml of MWNTs, Group 2 receiving a treatment composition comprising 300 μM oxaliplatin, and Group 3 receiving a treatment composition comprising 300 μM oxaliplatin and 100 μg MWNT per ml.
Each animal of Groups 1-3 receives intraperitoneal injections of 1E6 HeLa cervical cancer cells which express folic acid receptors. […] Two weeks after the intraperitoneal injections of the cancerous cells, the intraperitoneal cavity of each animal in Groups 1-3 is exposed, and the cancer nodules photographed allowing size and number of the nodules to be recorded.
After examination and quantification of cancer nodules, two 5 ml solutions of FA functionalized MWNTs (100 μg/ml) are provided to the intraperitoneal cavity of each animal in Groups 1 and 3. […]
The animals of Groups 1-3 are allowed to recover for two weeks. […] The size and number of cancerous nodules at the time of sacrifice is compared to the initially recorded observations of size and number of cancerous nodules for each animal. Moreover, for each animal in the study, a total of about 1 to 10 mg of tumor nodule mass is retained to determine platinum content as determined by elemental analysis.
In experiment [4] the test system is RKO cells. Kind of experiment: Cell death of RKO cells after exposure to compositions, calorimetric assay (Example 4). Type of experiment: cell-based, human. Particulars: oxaliplatin 300 μM, heated to 42° C. for two hours. How it is done:
Three (3) 48 well plates containing 20,000 RKO cells/well (human colon carcinoma) were prepared for a series of experiments measuring cell death as a function of exposure to various compositions, including compositions according to some embodiments of the present invention.
as §1
50 mg of the MWNTs were cut and cleaned by sonication in a mixture of 90 ml of concentrated sulfuric acid and 30 ml of concentrated nitric acid for 24 hours. The length of the nanotubes was about 2 μm as determined by transmission electron microscopy (TEM). MWNT suspensions were prepared by adding 1 mg of MWNT per 1 ml of aqueous solution having 0.1% by weight Pluronic 127® surfactant. The suspensions were sonicated to enhance MWNT dispersion. MWNT suspensions were diluted with water to a concentration of 100 μg MWNT/ml.
A solution comprising oxaliplatin at a concentration of 300 μM was obtained (Ox). […]
Cell death resulting from the addition of the various compositions at the three temperatures was monitored by calorimetric assay. […]

On to `CO[C@@]12[C@H](COC(N)=O)C3=C(C(=O)C(C)=C(N)C3=O)N1C[C@@H]1N[C@@H]12` [MMC, Mitomycin C], for which, in the experiment with RKO cells [1], the cell death entry was “significant death”.

On to `O=C1[O][Pt]2([NH][C@@H]3CCCC[C@H]3[NH]2)[O]C1=O` [oxaliplatin], for which the cell death result is “significant death” in the experiment on HCT 116 cells, “significant death” with RKO cells [2] and “significant” in the experiment on RKO cells [4]. For the same compound, the “reduction in the sizes and numbers of cancerous nodules (Groups 2 and 3 compared)” value in experiment [3] is given as “substantially similar reduction”.
